ChEMBL document CHEMBL5445981, “Affinity On-target Cellular Literature for EUbOPEN Chemogenomic Library” (2024)
One block for each compound: values may come before it.

Experiments:
[1] = molecular target: Cyclin-dependent kinase 7 (Homo sapiens, UniProt P50613); assay: Affinity On-target Cellular interaction: (Radioactive in vitro kinase assays (from cellular wild-type CDK7 immunoprecipitated in HeLa cells)) EUB0001635a CDK7; assay type: cell-based; design: mode of action Covalent inhibitor, recommended concentration 1 uM
[2] = molecular target: Chromatin remodeling regulator CECR2 (Homo sapiens, UniProt Q9BXF3); assay: Affinity On-target Cellular interaction: (NanoBRET assay (NL-FL […] in HEK293 cells)) EUB0000233b CECR2; assay type: cell-based; design: mode of action Inhibitor, recommended concentration 1 uM
[3] = molecular target: Nucleosome-remodeling factor subunit BPTF (Homo sapiens, UniProt Q12830); assay: Affinity On-target Cellular interaction: (NanoBRET assay (NL-BPTF BD in HEK293 cells)) EUB0000233b BPTF; assay type: cell-based; design: mode of action Inhibitor, recommended concentration 1 uM
[4] = molecular target: Cyclin-G-associated kinase (Homo sapiens, UniProt O14976); assay: Affinity On-target Cellular interaction: (NanoBRET assay (HEK293T cells)) EUB0000229b GAK; assay type: cell-based, HEK-293T; design: mode of action Negative control for SGC-GAK-1, recommended concentration 1 uM
Sequence of Cyclin-G-associated kinase (O14976 whole entry): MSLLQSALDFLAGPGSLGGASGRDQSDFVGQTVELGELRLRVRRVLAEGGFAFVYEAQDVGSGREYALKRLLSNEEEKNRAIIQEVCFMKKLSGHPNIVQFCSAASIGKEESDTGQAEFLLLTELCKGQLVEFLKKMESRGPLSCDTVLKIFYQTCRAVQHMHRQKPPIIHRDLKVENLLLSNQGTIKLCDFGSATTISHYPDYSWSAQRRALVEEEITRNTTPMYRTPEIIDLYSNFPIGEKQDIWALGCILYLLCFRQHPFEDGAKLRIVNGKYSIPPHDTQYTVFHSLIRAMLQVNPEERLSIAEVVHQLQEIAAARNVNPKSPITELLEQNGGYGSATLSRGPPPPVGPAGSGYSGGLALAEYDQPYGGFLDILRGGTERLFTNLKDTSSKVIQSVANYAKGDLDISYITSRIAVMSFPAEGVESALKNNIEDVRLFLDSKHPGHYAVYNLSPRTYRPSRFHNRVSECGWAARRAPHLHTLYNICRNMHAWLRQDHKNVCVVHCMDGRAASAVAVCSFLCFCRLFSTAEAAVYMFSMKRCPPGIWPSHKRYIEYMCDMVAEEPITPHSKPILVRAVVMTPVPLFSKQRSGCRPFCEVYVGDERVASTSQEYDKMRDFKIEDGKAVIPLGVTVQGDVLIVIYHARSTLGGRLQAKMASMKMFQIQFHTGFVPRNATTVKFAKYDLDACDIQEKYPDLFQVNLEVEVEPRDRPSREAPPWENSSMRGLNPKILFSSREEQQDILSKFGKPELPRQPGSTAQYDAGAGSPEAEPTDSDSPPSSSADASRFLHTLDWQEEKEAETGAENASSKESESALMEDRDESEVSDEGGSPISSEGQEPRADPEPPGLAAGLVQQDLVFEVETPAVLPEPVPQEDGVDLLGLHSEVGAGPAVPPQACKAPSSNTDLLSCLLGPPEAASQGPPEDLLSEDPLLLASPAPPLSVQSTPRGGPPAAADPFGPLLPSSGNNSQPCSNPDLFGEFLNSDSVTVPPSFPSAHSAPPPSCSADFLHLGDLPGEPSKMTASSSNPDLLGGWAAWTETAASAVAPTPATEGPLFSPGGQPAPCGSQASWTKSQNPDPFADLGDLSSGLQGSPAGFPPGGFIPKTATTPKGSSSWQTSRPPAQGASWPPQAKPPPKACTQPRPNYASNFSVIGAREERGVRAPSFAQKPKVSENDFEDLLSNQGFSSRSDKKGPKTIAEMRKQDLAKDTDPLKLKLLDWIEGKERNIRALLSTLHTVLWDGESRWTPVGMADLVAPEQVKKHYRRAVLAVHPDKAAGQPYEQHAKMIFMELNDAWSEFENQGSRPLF

[5] = molecular target: Calcium/calmodulin-dependent protein kinase type 1D (Homo sapiens, UniProt Q8IU85); assay: Affinity On-target Cellular interaction: (NanoBRET assay (in HEK293T cells)) EUB0000878a CAMK1D; assay type: cell-based, HEK-293T; design: mode of action Inhibitor, recommended concentration 100 nM
Sequence of Calcium/calmodulin-dependent protein kinase type 1D (Q8IU85 whole entry): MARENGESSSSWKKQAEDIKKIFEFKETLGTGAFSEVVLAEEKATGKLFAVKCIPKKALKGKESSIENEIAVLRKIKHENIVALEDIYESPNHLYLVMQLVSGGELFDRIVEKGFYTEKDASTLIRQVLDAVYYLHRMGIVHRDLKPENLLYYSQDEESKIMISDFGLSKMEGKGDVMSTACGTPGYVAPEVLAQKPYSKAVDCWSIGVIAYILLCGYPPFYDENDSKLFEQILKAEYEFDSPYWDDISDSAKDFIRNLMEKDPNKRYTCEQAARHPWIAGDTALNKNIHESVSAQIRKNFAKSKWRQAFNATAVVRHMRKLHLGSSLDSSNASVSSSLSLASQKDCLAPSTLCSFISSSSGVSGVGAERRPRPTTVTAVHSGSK

[6] = molecular target: Dual specificity protein kinase CLK4 (Homo sapiens, UniProt Q9HAZ1); assay: Affinity On-target Cellular interaction: (NanoBRET assay (in HEK293T cells)) EUB0000008b CLK4; assay type: cell-based, HEK-293T; design: mode of action Inhibitor, recommended concentration 1 uM
Sequence of Dual specificity protein kinase CLK4 (Q9HAZ1 whole entry): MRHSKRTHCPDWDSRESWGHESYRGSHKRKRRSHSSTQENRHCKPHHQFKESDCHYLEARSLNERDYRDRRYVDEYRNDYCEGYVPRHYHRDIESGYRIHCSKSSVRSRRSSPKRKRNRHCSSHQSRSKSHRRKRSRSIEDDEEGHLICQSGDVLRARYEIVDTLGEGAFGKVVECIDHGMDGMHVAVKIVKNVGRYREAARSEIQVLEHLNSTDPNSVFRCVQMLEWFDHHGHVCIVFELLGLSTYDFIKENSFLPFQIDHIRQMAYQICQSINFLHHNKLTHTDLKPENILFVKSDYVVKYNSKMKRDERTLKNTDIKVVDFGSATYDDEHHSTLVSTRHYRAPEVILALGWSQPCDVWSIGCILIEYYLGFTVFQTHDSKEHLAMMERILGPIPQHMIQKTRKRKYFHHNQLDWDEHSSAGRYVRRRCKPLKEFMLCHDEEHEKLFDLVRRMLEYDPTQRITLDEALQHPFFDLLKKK

[7] = molecular target: Dual specificity tyrosine-phosphorylation-regulated kinase 1A (Homo sapiens, UniProt Q13627); assay: Affinity On-target Cellular interaction: (NanoBRET assay (in HEK293T cells)) EUB0000008b DYRK1A; assay type: cell-based, HEK-293T; design: mode of action Inhibitor, recommended concentration 1 uM
[8] = molecular target: Dual specificity tyrosine-phosphorylation-regulated kinase 2 (Homo sapiens, UniProt Q92630); assay: Affinity On-target Cellular interaction: (NanoBRET assay (in HEK293T cells)) EUB0000008b DYRK2; assay type: cell-based, HEK-293T; design: mode of action Inhibitor, recommended concentration 1 uM
[9] = molecular target: Dual specificity protein kinase CLK1 (Homo sapiens, UniProt P49759); assay: Affinity On-target Cellular interaction: (NanoBRET assay (HEK293T cells)) EUB0001049a CLK1; assay type: cell-based, HEK-293T; design: mode of action Negative control for SGC-CLK-1 (UNC-CAF-170 ), recommended concentration 1 uM
[10] = molecular target: Dual specificity protein kinase CLK2 (Homo sapiens, UniProt P49760); assay: Affinity On-target Cellular interaction: (NanoBRET assay (HEK293T cells)) EUB0001049a CLK2; assay type: cell-based, HEK-293T; design: mode of action Negative control for SGC-CLK-1 (UNC-CAF-170 ), recommended concentration 1 uM
[11] = molecular target: Histone-arginine methyltransferase CARM1 (Homo sapiens, UniProt Q86X55); assay: Affinity On-target Cellular interaction: (Western Blot (dimethylation of BAF155, BAF155me2a/BAF155, in HEK293T cells)) EUB0000255b CARM1; assay type: cell-based, HEK-293T; design: mode of action Negative control for TP-064, recommended concentration 1 uM
Sequence of Histone-arginine methyltransferase CARM1 (Q86X55 whole entry): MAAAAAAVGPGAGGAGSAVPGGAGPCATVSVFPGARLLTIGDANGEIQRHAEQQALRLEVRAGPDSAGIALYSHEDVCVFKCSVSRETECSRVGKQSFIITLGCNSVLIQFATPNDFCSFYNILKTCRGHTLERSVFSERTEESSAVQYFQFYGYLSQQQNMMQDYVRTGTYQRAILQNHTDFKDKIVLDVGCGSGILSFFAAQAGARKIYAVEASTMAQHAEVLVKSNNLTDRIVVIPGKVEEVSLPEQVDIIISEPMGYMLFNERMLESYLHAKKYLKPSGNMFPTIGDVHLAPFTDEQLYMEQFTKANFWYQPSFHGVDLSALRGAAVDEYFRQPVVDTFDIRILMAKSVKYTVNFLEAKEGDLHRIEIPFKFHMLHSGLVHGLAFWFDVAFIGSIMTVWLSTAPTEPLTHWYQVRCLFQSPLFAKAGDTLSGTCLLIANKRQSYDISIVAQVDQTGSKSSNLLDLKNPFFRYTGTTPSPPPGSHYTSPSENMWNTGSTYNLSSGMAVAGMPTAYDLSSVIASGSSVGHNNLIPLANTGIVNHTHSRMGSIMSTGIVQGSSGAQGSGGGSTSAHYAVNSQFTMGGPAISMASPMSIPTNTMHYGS

SRSF protein kinase 1 = SRSF protein kinase 1 (Homo sapiens, UniProt Q96SB4)
SRSF protein kinase 2 = SRSF protein kinase 2 (Homo sapiens, UniProt P78362)
[12] = molecular target: Histone-lysine N-methyltransferase NSD3 (Homo sapiens, UniProt Q9BZ95); assay: Affinity On-target Cellular interaction: (NanoBRET assay (Nluc-NSD3-PWWP1 fusion protein in U2OS cells)) EUB0000270b NSD3; assay type: cell-based; design: mode of action Negative control for BI-9321, recommended concentration 1 uM
[13] = molecular target: Serine/threonine-protein kinase 17A (Homo sapiens, UniProt Q9UEE5)
[14] = molecular target: T1, Casein kinase I isoform delta (Homo sapiens, UniProt P48730); assay: Affinity On-target Cellular interaction: (NanoBRET asssay (HEK293T cells)) EUB0001201a CSNK1D; assay type: cell-based, HEK-293T; design: mode of action Negative control for MU1742, recommended concentration 1 uM
T1 sequence (P48730 whole entry, canonical isoform): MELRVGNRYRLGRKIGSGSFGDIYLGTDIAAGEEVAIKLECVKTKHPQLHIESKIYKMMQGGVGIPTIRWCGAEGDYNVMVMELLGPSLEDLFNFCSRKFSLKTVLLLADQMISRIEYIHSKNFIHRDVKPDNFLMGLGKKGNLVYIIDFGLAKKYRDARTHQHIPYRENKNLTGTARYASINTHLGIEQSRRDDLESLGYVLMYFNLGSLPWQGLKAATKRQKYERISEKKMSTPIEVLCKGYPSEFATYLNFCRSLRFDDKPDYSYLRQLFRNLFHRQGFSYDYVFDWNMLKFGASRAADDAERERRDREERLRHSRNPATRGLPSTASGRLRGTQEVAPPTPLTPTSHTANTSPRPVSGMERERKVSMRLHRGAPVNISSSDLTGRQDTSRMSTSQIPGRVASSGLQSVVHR

[15] = molecular target: T2, Casein kinase I isoform epsilon (Homo sapiens, UniProt P49674); assay: Affinity On-target Cellular interaction: (NanoBRET asssay (HEK293T cells)) EUB0001201a CSNK1E; assay type: cell-based, HEK-293T; design: mode of action Negative control for MU1742, recommended concentration 1 uM
T2 sequence (P49674 whole entry, canonical isoform): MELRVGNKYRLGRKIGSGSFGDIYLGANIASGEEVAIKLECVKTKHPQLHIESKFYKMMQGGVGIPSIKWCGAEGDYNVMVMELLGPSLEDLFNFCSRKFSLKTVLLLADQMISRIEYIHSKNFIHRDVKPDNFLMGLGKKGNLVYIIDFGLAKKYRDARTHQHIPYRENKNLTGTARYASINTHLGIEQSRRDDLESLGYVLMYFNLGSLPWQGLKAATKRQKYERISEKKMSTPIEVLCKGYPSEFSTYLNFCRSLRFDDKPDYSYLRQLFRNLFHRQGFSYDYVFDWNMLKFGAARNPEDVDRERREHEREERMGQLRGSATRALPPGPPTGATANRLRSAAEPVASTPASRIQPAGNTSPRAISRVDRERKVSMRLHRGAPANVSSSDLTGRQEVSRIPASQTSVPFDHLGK

[16] = molecular target: Serine/threonine-protein kinase SIK1 (Homo sapiens, UniProt P57059); assay: Affinity On-target Cellular interaction: (NanoBRET assay (HEK293T cells)) EUB0001479a SIK1; assay type: cell-based, HEK-293T; design: mode of action Negative control for MRIA9, recommended concentration 1 uM
[17] = molecular target: Serine/threonine-protein kinase SIK2 (Homo sapiens, UniProt Q9H0K1); assay: Affinity On-target Cellular interaction: (NanoBRET assay (HEK293T cells)) EUB0001479a SIK2; assay type: cell-based, HEK-293T; design: mode of action Negative control for MRIA9, recommended concentration 1 uM
[18] = molecular target: Serine/threonine-protein kinase SIK3 (Homo sapiens, UniProt Q9Y2K2); assay: Affinity On-target Cellular interaction: (NanoBRET assay (HEK293T cells)) EUB0001479a SIK3; assay type: cell-based, HEK-293T; design: mode of action Negative control for MRIA9, recommended concentration 1 uM
[19] = molecular target: Casein kinase I isoform alpha (Homo sapiens, UniProt P48729); assay: Affinity On-target Cellular interaction: (NanoBRET asssay (HEK293T cells)) EUB0001205a CSNK1A1; assay type: cell-based, HEK-293T; design: mode of action Inhibitor, recommended concentration 1 uM
[20] = molecular target: T1, Casein kinase I isoform delta; assay: Affinity On-target Cellular interaction: (NanoBRET asssay (HEK293T cells)) EUB0001205a CSNK1D; assay type: cell-based, HEK-293T; design: mode of action Inhibitor, recommended concentration 1 uM
[21] = molecular target: T2, Casein kinase I isoform epsilon; assay: Affinity On-target Cellular interaction: (NanoBRET asssay (HEK293T cells)) EUB0001205a CSNK1E; assay type: cell-based, HEK-293T; design: mode of action Inhibitor, recommended concentration 1 uM
[22] = molecular target: T3, Inhibitor of nuclear factor kappa-B kinase subunit beta (Homo sapiens, UniProt O14920); assay: Affinity On-target Cellular interaction: (NanoBRET assay (HEK293T cells)) EUB0001576a IKBKB; assay type: cell-based, HEK-293T; design: mode of action Negative control for BI 605906, recommended concentration 1 uM
T3 sequence (O14920 whole entry): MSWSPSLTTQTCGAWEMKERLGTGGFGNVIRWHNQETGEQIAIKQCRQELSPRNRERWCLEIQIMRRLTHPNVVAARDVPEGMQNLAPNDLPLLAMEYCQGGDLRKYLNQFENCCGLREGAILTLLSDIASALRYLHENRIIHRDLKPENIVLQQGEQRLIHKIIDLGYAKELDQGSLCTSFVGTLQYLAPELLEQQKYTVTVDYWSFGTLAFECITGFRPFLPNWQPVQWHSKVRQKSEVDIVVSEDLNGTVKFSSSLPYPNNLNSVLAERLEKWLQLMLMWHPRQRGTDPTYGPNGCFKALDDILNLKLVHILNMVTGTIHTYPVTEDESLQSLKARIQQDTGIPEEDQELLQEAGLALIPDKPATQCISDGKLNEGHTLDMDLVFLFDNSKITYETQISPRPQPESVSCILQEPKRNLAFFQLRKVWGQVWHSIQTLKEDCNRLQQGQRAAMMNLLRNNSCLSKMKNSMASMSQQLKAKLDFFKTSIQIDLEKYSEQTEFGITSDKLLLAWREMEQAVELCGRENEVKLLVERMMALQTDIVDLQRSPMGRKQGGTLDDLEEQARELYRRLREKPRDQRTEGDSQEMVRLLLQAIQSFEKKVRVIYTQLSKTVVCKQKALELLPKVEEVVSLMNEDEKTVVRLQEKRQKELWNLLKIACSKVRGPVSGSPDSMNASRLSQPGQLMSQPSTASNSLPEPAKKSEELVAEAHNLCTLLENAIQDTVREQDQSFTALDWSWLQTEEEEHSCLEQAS

[23] = molecular target: T3, Inhibitor of nuclear factor kappa-B kinase subunit beta; assay: Affinity On-target Cellular interaction: (Cellular assay (inhibition of phospho-IKBKB in HeLa cells)) EUB0001492b IKBKB; assay type: cell-based; design: mode of action Inhibitor, recommended concentration 1 uM
[24] = molecular target: Receptor tyrosine-protein kinase erbB-2 (Homo sapiens, UniProt P04626); assay: Affinity On-target Cellular interaction: (Western Blot (EGF-induced autophosphorylation of the chimera EGFR extracellular domain and erbB2 intracellular domain in NIH 3T3 cells)) EUB0000595a ERBB2; assay type: cell-based; design: mode of action Inhibitor, recommended concentration 1 uM; details: nih3t3
[25] = molecular target: RAC-alpha serine/threonine-protein kinase (Homo sapiens, UniProt P31749); assay: Affinity On-target Cellular interaction: (NanoBRET assay (HEK293T cells)) EUB0001563a AKT1; assay type: cell-based; design: mode of action Negative control for Borussertib, recommended concentration 1 uM; details: hek-293t
Sequence of RAC-alpha serine/threonine-protein kinase (P31749 whole entry): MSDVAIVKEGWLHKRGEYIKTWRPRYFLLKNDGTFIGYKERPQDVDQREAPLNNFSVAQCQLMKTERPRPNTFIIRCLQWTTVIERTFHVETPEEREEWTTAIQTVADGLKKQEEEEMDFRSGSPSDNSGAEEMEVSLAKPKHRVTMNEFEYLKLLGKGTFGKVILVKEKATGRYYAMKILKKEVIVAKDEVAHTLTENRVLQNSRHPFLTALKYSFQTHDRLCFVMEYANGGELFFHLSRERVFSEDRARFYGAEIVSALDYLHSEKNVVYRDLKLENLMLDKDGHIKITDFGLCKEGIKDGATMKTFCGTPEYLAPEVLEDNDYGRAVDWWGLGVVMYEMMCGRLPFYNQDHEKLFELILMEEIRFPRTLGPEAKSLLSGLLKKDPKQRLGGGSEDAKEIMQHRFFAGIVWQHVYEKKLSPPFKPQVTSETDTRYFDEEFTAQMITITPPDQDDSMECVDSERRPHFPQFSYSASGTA

[26] = molecular target: RAC-beta serine/threonine-protein kinase (Homo sapiens, UniProt P31751); assay: Affinity On-target Cellular interaction: (NanoBRET assay (HEK293T cells)) EUB0001563a AKT2; assay type: cell-based; design: mode of action Negative control for Borussertib, recommended concentration 1 uM; details: hek-293t

EC50 [2]: 289 nM | EC50 [3]: 228 nM
Compound: CN(C)CCCOc1ccc(-c2cc(NCCCn3cccn3)nc(S(C)(=O)=O)n2)cc1

Ki [6]: 23 nM | Ki [7]: 6.58 µM | Ki [8]: 1700 nM
Compound: Cn1cc(-c2ccc3occ(-c4cccc(-c5ccncc5)c4)c3n2)cn1

IC50 (SRSF protein kinase 1): > 50 µM | IC50 (SRSF protein kinase 2): > 50 µM
Compound: CN(c1ncccc1CNc1ccnc(-c2cc3cc(Cl)ccc3[nH]2)n1)S(C)(=O)=O

IC50 [14]: > 50 µM | IC50 [15]: > 50 µM
Compound: CCc1ccc(-c2ncn(CC3(F)CCN(C)CC3)c2-c2ccnc3[nH]ccc23)nc1

IC50 [16]: 14 µM | IC50 [17]: 14 µM | IC50 [18]: 14 µM
Compound: CN(C)c1ncc2cc(-c3ccc(-c4ncccc4F)cc3Cl)c(=O)n(C[C@H]3OC[C@H](N)CO3)c2n1

IC50 [19]: 3.5 µM | IC50 [20]: 47 nM | IC50 [21]: 220 nM
Compound: CN1CCC(F)(Cn2cnc(-c3ccc(F)cn3)c2-c2ccnc3[nH]ccc23)CC1

IC50 [24]: 32 nM
Compound: COCC(=O)NC/C=C/c1ccc2ncnc(Nc3ccc(Oc4ccc(C)nc4)c(C)c3)c2c1 [CP-724714]

More lines, now with the values behind:

Compound: C=CC(=O)Nc1ccc(C(=O)Nc2n[nH]c3c2CN(C(=O)N[C@H](CN(C)C)c2ccccc2)C3(C)C)cc1
IC50 [1]: 62.5 nM

Compound: COc1cc(N(C)c2ccnc3ccc(C(F)(F)F)cc23)cc(OC)c1OC
IC50 [4]: > 5 µM

Compound: CC(C)c1cc(Nc2nc(N3CCC[C@H](N)C3)ncc2C(N)=O)cc(C(C)C)n1
IC50 [5]: 29 nM

Compound: COc1cc(Nc2nc(C)cc(-c3cnn4nc(OC)ccc34)n2)cc(C(F)(F)F)c1
IC50 [9]: > 10 µM | IC50 [10]: > 10 µM

Compound: COCCN1CCC(c2cc(CN(C)C(=O)c3cccc(Oc4ccccc4)c3)ccn2)CC1
IC50 [11]: > 10 µM

Compound: Cc1cc(CN)cc(C)c1-c1ncn(C)c1-c1cncn1C
IC50 [12]: > 10 µM

Compound: CN1CCN(C(=O)c2ccc3cc2OCCOCCNc2ccn4ncc-3c4n2)CC1
IC50 [13]: > 45 µM

Compound: CN(C)C(=O)c1sc2nc(N3CCC(S(C)(=O)=O)CC3)cc(C(F)(F)F)c2c1N [BI-5026]
IC50 [22]: > 20 µM

Compound: CCC(F)(F)c1cc(N2CCC(S(C)(=O)=O)CC2)nc2sc(C(N)=O)c(N)c12 [BI-605906]
EC50 [23]: 900 nM

Compound: C=CC(=O)Nc1ccc2[nH]c(=O)n(C3CCN(Cc4ccc(-c5ccc6c(c5)NC(=O)CO6)cc4)CC3)c2c1 [RL2578]
IC50 [25]: 1900 nM | IC50 [26]: 8.3 µM
